Data: patent US5495032A, “Process for producing 7-(substituted)-8-(substituted-9-[(substituted glycyl)amido]-6-demethyl-6-deoxytetracyclines” (priority 1994, dated 1996)
≈ marks a conversion by molar mass, not a printed value. Where a name gives a salt, the structure may show the parent alone. Read-outs that look alike come from different tables or passages of the source.

What was measured:
Format in all cases: cell-based
E. faecalis ATCC 29212 = assay: MIC, agar dilution method; settings: Enterococcus faecalis
S. aureus UBMS 90-3 = assay: MIC, agar dilution method; settings: Staphylococcus aureus, UBMS903, 18 h
E. coli UBMS 88-1 Tet B = assay: microbe, parasite or virus in culture; settings: Escherichia coli, UBMS881TETB, 18 h, 18 hours at 35° C.
[1] = tested on: S. aureus UBMS 88-5 Tet M; assay: microbe, parasite or virus in culture; settings: Staphylococcus aureus, UBMS885TETM, 18 h
E. coli PRP1 Tet A = assay: microbe, parasite or virus in culture; settings: Escherichia coli, PRP1TETA, 18 h, 18 hours at 35° C.
[2] = tested on: S. aureus UBMS 90-1 Tet M; assay: microbe, parasite or virus in culture; settings: Staphylococcus aureus, UBMS901TETM, 18 h, 18 hours at 35° C.
E. coli BAJ9003 IMP MUT = assay: microbe, parasite or virus in culture; settings: Escherichia coli, BAJ9003IMPMUT, 18 h, 18 hours at 35° C.
[3] = tested on: X. maltophilia NEMC 87210; assay: MIC, agar dilution method; settings: Stenotrophomonas maltophilia
[4] = tested on: E. coli MC 4100 Tet sens.; assay: MIC, agar dilution method; settings: Escherichia coli, 18 hours at 35° C., read-out: MIC
Enterococcus 12201 = assay: MIC, agar dilution method; settings: Enterococcus, 12201, 18 h, 18 hours at 35° C.
[5] = tested on: E. coli UBMS 89-2 Tet sens; assay: MIC, agar dilution method; settings: Escherichia coli, UBMS892TETSENS, 18 h, 18 hours at 35° C., read-out: MIC
E. coli #311 (MP) = assay: MIC, agar dilution method; settings: Escherichia coli, 18 hours at 35° C., read-out: MIC
S. aureus UBMS 88-4 = assay: MIC, agar dilution method; settings: Staphylococcus aureus, UBMS884, 18 hours at 35° C., read-out: MIC
S. aureus ATCC 29213 = assay: MIC, agar dilution method; settings: Staphylococcus aureus, ATCC29213, 18 h, 18 hours at 35° C.
E. coli UBMS 90-4 Tet M = assay: microbe, parasite or virus in culture; settings: Escherichia coli, UBMS904TETM, 18 h, 18 hours at 35° C.
S. aureus ROSE (MP) = assay: MIC, agar dilution method; settings: Staphylococcus aureus, 18 h, 18 hours at 35° C.
[6] = tested on: S. hemolyticus AVHAH 88-3; assay: MIC, agar dilution method; settings: Streptococcus pyogenes
[7] = tested on: S. aureus UBMS 88-7 Tet K; assay: microbe, parasite or virus in culture; settings: Staphylococcus aureus, UBMS887TETK, 18 h, 18 hours at 35° C.
E. coli J3272 Tet C = assay: microbe, parasite or virus in culture; settings: Escherichia coli, J3272TETC, 18 h
S. aureus IVES 2943 = assay: MIC, agar dilution method; settings: Staphylococcus aureus
[8] = tested on: S. aureus UBMS 90-2 Tet M; assay: microbe, parasite or virus in culture; settings: Staphylococcus aureus, UBMS902TETM, 18 h, 18 hours at 35° C.
S. aureus SMITH (MP) = assay: MIC, agar dilution method; settings: Staphylococcus aureus, 18 h, 18 hours at 35° C.
[9] = tested on: Ps. acruginosa ATCC 27853; assay: MIC, agar dilution method; settings: Ps. acruginosa ATCC 27853; 18 hours at 35° C.; read-out: MIC
S. mariescens FPOR 8733 = assay: MIC, agar dilution method; settings: 18 hours at 35° C.
E. coli ATCC 25922 = assay: MIC, agar dilution method; settings: Escherichia coli, ATCC25922, 18 hours at 35° C., read-out: MIC
E. coli J3272 Tet D = assay: microbe, parasite or virus in culture; settings: Escherichia coli, J3272TETD, 18 h
[10] = tested on: E. coli MC 4100 TNIOC Tet B; assay: microbe, parasite or virus in culture; settings: Escherichia coli, 18 h, 18 hours at 35° C.
S. aureus NEMC 8769 = assay: MIC, agar dilution method; settings: Staphylococcus aureus, NEMC8769, 18 h
S. aureus IVES 1 983 = assay: MIC, agar dilution method; settings: Staphylococcus aureus
E. coli UBMS 89-1 Tet M = assay: microbe, parasite or virus in culture; settings: Escherichia coli, UBMS891TETM, 18 h, 18 hours at 35° C.
E. coli J2175 = assay: MIC, agar dilution method; settings: Escherichia coli, 18 hours at 35° C., read-out: MIC
E. coli UBMS 90-5 sens = assay: MIC, agar dilution method; settings: Escherichia coli, UBMS905SENS, 18 hours at 35° C., read-out: MIC
[11] = NEMC87210, 18 hours at 35° C., read-out: MIC
[12] = AVHAH883, 18 hours at 35° C., read-out: MIC
[13] = ATCC29212, 18 hours at 35° C., read-out: MIC

CN(C)CC(=O)Nc1c(O)c2c(c(N(C)C)c1Cl)CC1CC3[C@H](N(C)C)C(O)=C(C(N)=O)C(=O)[C@@]3(O)C(O)=C1C2=O (stereo partly drawn) [B, [4S-(4α,12aα)]-8-Chloro-4,7-(dimethylamino)-9-[[(dimethylamino)acetyl]amino]-1,4,4a,5,5a,6,11,12a-octahydro-3,10,12,12a-tetrahydroxy-1,11-dioxo-2-naphthacenecarboxamide]
MIC (E. faecalis ATCC 29212; ATCC29212, 18 h, 18 hours at 35° C.): 0.12 µg/mL (≈ 0.203 µM) | MIC (S. aureus UBMS 90-3): 0.12 µg/mL (≈ 0.203 µM) | MIC (E. coli UBMS 88-1 Tet B): > 32 µg/mL | MIC [1]: 0.25 µg/mL (≈ 0.422 µM) | MIC (E. coli PRP1 Tet A): 16 µg/mL (≈ 27 µM) | MIC [2]: 0.5 µg/mL (≈ 0.845 µM) | MIC (E. coli BAJ9003 IMP MUT): 0.12 µg/mL (≈ 0.203 µM) | MIC [3, 11]: 0.5 µg/mL (≈ 0.845 µM) | MIC [4]: 2 µg/mL (≈ 3.38 µM) | MIC (Enterococcus 12201): 0.12 µg/mL (≈ 0.203 µM) | MIC [5]: 16 µg/mL (≈ 27 µM) | MIC (E. coli #311 (MP)): 4 µg/mL (≈ 6.76 µM) | MIC (S. aureus UBMS 88-4): 0.25 µg/mL (≈ 0.422 µM) | MIC (S. aureus ATCC 29213): 0.25 µg/mL (≈ 0.422 µM) | MIC (E. coli UBMS 90-4 Tet M): > 32 µg/mL | MIC (S. aureus ROSE (MP)): 8 µg/mL (≈ 13.5 µM) | MIC [6, 12]: 0.5 µg/mL (≈ 0.845 µM) | MIC [7]: 2 µg/mL (≈ 3.38 µM) | MIC (E. coli J3272 Tet C): 16 µg/mL (≈ 27 µM) | MIC (S. aureus IVES 2943; IVES2943, 18 h): 4 µg/mL (≈ 6.76 µM) | MIC [8]: 0.25 µg/mL (≈ 0.422 µM) | MIC (S. aureus SMITH (MP)): 0.12 µg/mL (≈ 0.203 µM) | MIC [9]: > 32 µg/mL | MIC (S. mariescens FPOR 8733; 18 h): > 32 µg/mL | MIC (E. coli ATCC 25922): 8 µg/mL (≈ 13.5 µM) | MIC (E. coli J3272 Tet D): 32 µg/mL (≈ 54 µM) | MIC [10]: > 32 µg/mL | MIC (S. aureus NEMC 8769): 0.12 µg/mL (≈ 0.203 µM) | MIC (S. aureus IVES 1 983; IVES1983, 18 h): 4 µg/mL (≈ 6.76 µM) | MIC (E. coli UBMS 89-1 Tet M): 32 µg/mL (≈ 54 µM) | MIC (E. coli J2175): 32 µg/mL (≈ 54 µM) | MIC (E. coli UBMS 90-5 sens): 32 µg/mL (≈ 54 µM)

CCCNCC(=O)Nc1c(Cl)cc2c(c1O)C(=O)C1=C(O)[C@]3(O)C(=O)C(C(N)=O)=C(O)[C@@H](N(C)C)C3CC1C2 (stereo partly drawn) [F, [4S-(4α,12aα)]-8-Chloro-4-(dimethylamino)-1,4,4a,5,5a,6,11,12a-octahydro-3,10,12,12a-tetrahydroxy-1,11-dioxo-9-[[(propylamino)acetyl]amino]-2-naphthacenecarboxamide dihydrochloride]
MIC (E. faecalis ATCC 29212; [13]): 0.12 µg/mL | MIC (S. aureus UBMS 90-3): 0.5 µg/mL | MIC (E. coli UBMS 88-1 Tet B): 0.5 µg/mL | MIC [1]: 0.5 µg/mL | MIC (E. coli PRP1 Tet A): 4 µg/mL | MIC [2]: 0.5 µg/mL | MIC (E. coli BAJ9003 IMP MUT): 0.12 µg/mL | MIC [3, 11]: 2 µg/mL | MIC [4]: 0.12 µg/mL | MIC (Enterococcus 12201): 0.25 µg/mL | MIC [5]: 1 µg/mL | MIC (E. coli #311 (MP)): 0.5 µg/mL | MIC (S. aureus UBMS 88-4): 0.25 µg/mL | MIC (S. aureus ATCC 29213): 0.25 µg/mL | MIC (E. coli UBMS 90-4 Tet M): 0.5 µg/mL | MIC (S. aureus ROSE (MP)): 16 µg/mL | MIC [6, 12]: 4 µg/mL | MIC [7]: 8 µg/mL | MIC (E. coli J3272 Tet C): 1 µg/mL | MIC (S. aureus IVES 2943; IVES2943, 18 h): 16 µg/mL | MIC [8]: 0.25 µg/mL | MIC (S. aureus SMITH (MP)): 0.25 µg/mL | MIC [9]: 32 µg/mL | MIC (S. mariescens FPOR 8733; read-out: MIC): 8 µg/mL | MIC (E. coli ATCC 25922): 0.5 µg/mL | MIC (E. coli J3272 Tet D): 0.25 µg/mL | MIC [10]: 0.5 µg/mL | MIC (S. aureus NEMC 8769): 0.25 µg/mL | MIC (S. aureus IVES 1 983; IVES1983, 18 h): 8 µg/mL | MIC (E. coli UBMS 89-1 Tet M): 0.5 µg/mL | MIC (E. coli J2175): 1 µg/mL | MIC (E. coli UBMS 90-5 sens): 0.5 µg/mL

CN(C)[C@@H]1C(O)=C(C(N)=O)C(=O)[C@@]2(O)C(O)=C3C(=O)c4c(cc(Cl)c(NC(=O)CN5CCCC5)c4O)CC3CC12 (stereo partly drawn) [E, [7S-(7α,10aα)]-N-[9-(Aminocarbonyl)-3-chloro-7-(dimethylamino)-5,5a,6,6a,7, 10,10a,12-octahydro-1,2,10a,11-tetrahydroxy-10,12-dioxo-2-naphthacenyl]-1-pyrrolidineacetamide dihydrochloride]
MIC (E. faecalis ATCC 29212; [13]): 0.12 µg/mL | MIC (S. aureus UBMS 90-3): 0.12 µg/mL | MIC (E. coli UBMS 88-1 Tet B): 1 µg/mL | MIC [1]: 0.25 µg/mL | MIC (E. coli PRP1 Tet A): 2 µg/mL | MIC [2]: 0.25 µg/mL | MIC (E. coli BAJ9003 IMP MUT): 0.12 µg/mL | MIC ([3]; NEMC87210, 18 h, 18 hours at 35° C.): 1 µg/mL | MIC [4]: 0.25 µg/mL | MIC (Enterococcus 12201): 0.25 µg/mL | MIC [5]: 1 µg/mL | MIC (E. coli #311 (MP)): 0.25 µg/mL | MIC (S. aureus UBMS 88-4): 0.25 µg/mL | MIC (S. aureus ATCC 29213): 0.25 µg/mL | MIC (E. coli UBMS 90-4 Tet M): 1 µg/mL | MIC (S. aureus ROSE (MP)): 8 µg/mL | MIC ([6]; AVHAH883, 18 h, 18 hours at 35° C.): 2 µg/mL | MIC [7]: 2 µg/mL | MIC (E. coli J3272 Tet C): 1 µg/mL | MIC (S. aureus IVES 2943; IVES2943, S. aureus IVES 2943, 18 hours at 35° C., read-out: MIC): 4 µg/mL | MIC [8]: 0.25 µg/mL | MIC (S. aureus SMITH (MP)): 0.25 µg/mL | MIC [9]: 32 µg/mL | MIC (S. mariescens FPOR 8733; 18 h): 8 µg/mL | MIC (E. coli ATCC 25922): 0.25 µg/mL | MIC (E. coli J3272 Tet D): 0.25 µg/mL | MIC [10]: 1 µg/mL | MIC (S. aureus NEMC 8769): 0.25 µg/mL | MIC (S. aureus IVES 1 983; IVES1983, S. aureus IVES 1 983, 18 hours at 35° C., read-out: MIC): 4 µg/mL | MIC (E. coli UBMS 89-1 Tet M): 0.25 µg/mL | MIC (E. coli J2175): 1 µg/mL | MIC (E. coli UBMS 90-5 sens): 1 µg/mL
